Data from ChEMBL document CHEMBL4425084, “Development of Heat Shock Protein (Hsp90) Inhibitors To Combat Resistance to Tyrosine Kinase Inhibitors through Hsp90-Kinase Interactions” (J Med Chem, 2016).

Legend:
[1] = test system: PC-9; assay: Cytotoxicity against HGF-induced erlotinib-resistant human PC9 cells assessed as inhibition of cell growth after 72 hrs by MTT assay; assay type: functional, cell-based; conditions: PC-9, 72 h
[2] = Cytotoxicity against HGF-induced erlotinib-resistant human Ma1 cells assessed as inhibition of cell growth after 72 hrs by MTT assay; assay type: functional, cell-based
[3] = Cytotoxicity against human NB39 cells assessed as decrease in cell viability after 72 hrs by CellTiter-Glo luminescence assay; conditions: NB39, 72 h
[4] = Inhibition of E6a/b;A20 EML4-ALK (unknown origin) expressed in human NCI-H2228 cells assessed as decrease in cell viability after 72 hrs by CellTiter-Glo luminescence assay; conditions: NCI-H2228, 72 h
[5] = Inhibition of E13;A20 EML4-ALK variant (unknown origin) expressed in human NCI-H3122 cells assessed as decrease in cell viability after 72 hrs by CellTiter-Glo luminescence assay; assay type: cell-based; conditions: NCI-H3122, 72 h
[6] = test system: A-375; assay: Cytotoxicity against human A375 cells assessed as decrease in cell viability after 72 hrs by CellTiter-Glo luminescence assay; assay type: functional, cell-based; conditions: A-375, 72 h
[7] = cells; conditions: Homo sapiens, BaF3, 24 h
[8] = test system: A-375; assay: animal or person; conditions: Mus musculus, A-375, iv, read-out: TGI
Description: Antitumor activity against vemurafenib-resistant human A375 cells xenografted in mouse assessed as tumor growth inhibition at 150 mg/kg, iv dosed as weekly treatment in presence of selumetinib

[9] = molecular target: Bcr/Abl fusion protein (Homo sapiens, UniProt P00519); assay: Inhibition of BCR-ABL (unknown origin) expressed in mouse BA/F3 cells assessed as decrease in cell viability after 48 hrs by trypan blue exclusion assay; assay type: cell-based
[10] = molecular target: Bcr/Abl fusion protein (Homo sapiens, UniProt P00519, T315I); assay: Inhibition of imatinib-resistant BCR-ABL T315I mutant (unknown origin) expressed in mouse BA/F3 cells assessed as decrease in cell viability after 48 hrs by trypan blue exclusion assay; assay type: cell-based
[11] = molecular target: Bcr/Abl fusion protein (Homo sapiens, UniProt P00519, E255K); assay: Inhibition of imatinib-resistant BCR-ABL E255K mutant (unknown origin) expressed in mouse BA/F3 cells assessed as decrease in cell viability after 48 hrs by trypan blue exclusion assay; assay type: cell-based
[12] = test system: Mus musculus; assay: In vivo inhibition of BCR-ABL/T315I mutant expressed in bone marrow cells transplanted in mouse assessed as level of cells expressing gatekeeper mutation at 100 mg/kg, bid measured after 15 days; assay type: functional; parameters: scale not given: the % may be the effect or the level left
[13] = test system: HCC827; assay: Cytotoxicity against gefitinib-resistant human HCC827 cells assessed as inhibition of cell proliferation by MTS assay; assay type: functional, cell-based
[14] = test system: GIST430; assay: Cytotoxicity against imatinib-resistant human GIST430 cells assessed as decrease in cell viability after 7 days by alamar blue assay; assay type: functional, cell-based; conditions: GIST430, 168 h
[15] = test system: GIST48; assay: Cytotoxicity against imatinib-resistant human GIST48 cells assessed as decrease in cell viability after 7 days by alamar blue assay; assay type: functional, cell-based; conditions: GIST48, 168 h
[16] = Toxicity in iv dosed NSCLC patient dosed weekly for 3 weeks on four week cycle during phase-1 clinical trial; assay type: organism-based; conditions: human, in vivo, 504 h
[17] = test system: NCI-H3122; assay: Cytotoxicity against crizotinib-resistant human NCI-H3122 cells assessed as cell growth inhibition after 72 hrs by trypan blue exclusion assay; assay type: functional; conditions: NCI-H3122, 72 h
[18] = test system: Mus musculus; assay: In vivo inhibition of BCR-ABL/T315I mutant expressed in bone marrow cells transplanted in mouse assessed as level of cells expressing gatekeeper mutation at 50 mg/kg once every 2 days measured after 28 days; assay type: functional; parameters: scale not given: the % may be the effect or the level left
[19] = Toxicity in human H3255 cells expressing L858R EGFR mutant xenografted in mouse administered ip 3 times per week; assay type: organism-based; conditions: in vivo
[20] = Toxicity in human H1650 cells expressing E746-A750 EGFR deletion mutant xenografted in mouse administered ip 3 times per week; assay type: organism-based; conditions: in vivo
[21] = Toxicity in human H1975 cells xenografted in mouse administered ip 3 times per week; assay type: organism-based; conditions: in vivo

**Q.** With CO[C@H]1/C=C\C=C(/C)C(=O)NC2=CC(=O)C(NCCN(C)C)=C(C[C@@H](C)C[C@H](OC)[C@H](O)[C@@H](C)/C=C(\C)[C@@H]1OC(N)=O)C2=O [ALVESPIMYCIN] as the compound, how does the IC50 [1] read?
**A.** 10 to 30 nM

**Q.** And the IC50 [2]?
**A.** 10 to 30 nM

**Q.** Which IC50 [3] does the source give for C[C@@H](Oc1cc(-c2cnn(C3CCNCC3)c2)cnc1N)c1c(Cl)ccc(F)c1Cl [CRIZOTINIB] here?
**A.** 240 nM

**Q.** What about the IC50 [4] of the same compound?
**A.** 202 nM

**Q.** And the IC50 [5]?
**A.** 300 nM

**Q.** With CC(C)c1cc(-c2n[nH]c(=O)n2-c2ccc3c(ccn3C)c2)c(O)cc1O [GANETESPIB] as the compound, how does the IC50 [3] read?
**A.** 10 nM

**Q.** And the IC50 [4]?
**A.** 13 nM

**Q.** And the IC50 [5]?
**A.** 10 nM

**Q.** What about the IC50 [6] of the same compound?
**A.** 15 nM

**Q.** And the IC50 [7]?
**A.** 11 nM

**Q.** And the inhibition in vivo at 150 mg/kg [8]?
**A.** 84%

**Q.** With COC1=C2C[C@@H](C)C[C@H](OC)[C@H](O)[C@@H](C)/C=C(\C)[C@H](OC(N)=O)[C@@H](OC)/C=C\C=C(/C)C(=O)NC(=CC1=O)C2=O [GELDANAMYCIN] as the compound, how does the IC50 [9] read?
**A.** 5000 nM

**Q.** And the IC50 [10]?
**A.** 1000 to 2000 nM

**Q.** What about the IC50 [11] of the same compound?
**A.** 1000 to 2000 nM

**Q.** Which Activity [12] does the source give for Cc1ccc(NC(=O)c2ccc(CN3CCN(C)CC3)cc2)cc1Nc1nccc(-c2cccnc2)n1 [IMATINIB] here?
**A.** 81.5%

**Q.** For CCNC(=O)c1noc(-c2cc(C(C)C)c(O)cc2O)c1-c1ccc(CN2CCOCC2)cc1 [LUMINESPIB], which IC50 [13] is on record?
**A.** 7 nM

**Q.** For CC(C)c1cc(C(=O)N2Cc3ccc(CN4CCN(C)CC4)cc3C2)c(O)cc1O [ONALESPIB], which IC50 [14] is on record?
**A.** 34 nM

**Q.** What about the IC50 [15] of the same compound?
**A.** 55 nM

**Q.** What about the MTD [16] of the same compound?
**A.** 260 mg/m2

**Q.** For C=CCNc1c(O)cc2c(O)c1C[C@@H](C)C[C@H](OC)[C@H](O)[C@@H](C)/C=C(\C)[C@H](OC(N)=O)[C@@H](OC)/C=C\C=C(/C)C(=O)N2.Cl [RETASPIMYCIN HYDROCHLORIDE], which GI50 [17] is on record?
**A.** 76 nM

**Q.** And the Activity [18]?
**A.** 0.5%

**Q.** For C=CCNC1=C2C[C@@H](C)C[C@H](OC)[C@H](O)[C@@H](C)/C=C(\C)[C@H](OC(N)=O)[C@@H](OC)/C=C\C=C(/C)C(=O)NC(=CC1=O)C2=O [TANESPIMYCIN], which IC50 [9] is on record?
**A.** 5000 nM

**Q.** And the IC50 [10]?
**A.** 1000 to 2000 nM

**Q.** And the IC50 [11]?
**A.** 1000 to 2000 nM

**Q.** What about the MTD [19] of the same compound?
**A.** 75 mg/kg

**Q.** And the MTD [20]?
**A.** 75 mg/kg

**Q.** And the MTD [21]?
**A.** 75 mg/kg

**Q.** With CCCS(=O)(=O)Nc1ccc(F)c(C(=O)c2c[nH]c3ncc(-c4ccc(Cl)cc4)cc23)c1F [VEMURAFENIB] as the compound, how does the IC50 [6] read?
**A.** 81 nM
